According to patent US8791118B2, “Pyridopyrazines as highly selective ras-Raf-Mek-Erk signal transduction pathway inhibitors” (Aeterna Zentaris GmbH, priority 2011, dated 2014):
Counter-ions that a name gives are not always drawn.

molecular target: Erk2 (Homo sapiens, UniProt P28482); assay: Erk2 alpha kinase assay (cell-free, ALPHA technology); assay type: biochemical; conditions: 10 μM ATP
Experimental: The inhibitory effect of the compounds according to the invention was tested on various serine/threonine, tyrosine and lipid kinases in enzymatic assays. Recombinant human kinases such as, for example, Erk2, were used in this case, partly as full-length kinases, partly as shortened fragments, but at least consisting of the functional kinase domains. The commercial kinase proteins (Proqinase, Upstate) were used as recombinant fusion proteins with GST (glutathion-S-transferase) or His-Tag. Depending on the type of substrate, the various kinase reactions were quantified by means of suitable ALPHA™ beads (Perkin-Elmer). The substance testing is described in detail hereinafter for the Erk assay. […] a) MAPK-ALPHAs (e.g. […] The fluorescence was detected the following morning in a Envision plate reader (Perkin-Elmer). The %-inhibition values per substance concentration were calculated by means of the following formula from the raw data determined in the Envision plate reader[…]: Eight determinations were made for each control and two for the substance samples. […] The IC50 values were determined using GraphPadPrism.

Chain of Erk2 (P28482 2-360 limits assumed): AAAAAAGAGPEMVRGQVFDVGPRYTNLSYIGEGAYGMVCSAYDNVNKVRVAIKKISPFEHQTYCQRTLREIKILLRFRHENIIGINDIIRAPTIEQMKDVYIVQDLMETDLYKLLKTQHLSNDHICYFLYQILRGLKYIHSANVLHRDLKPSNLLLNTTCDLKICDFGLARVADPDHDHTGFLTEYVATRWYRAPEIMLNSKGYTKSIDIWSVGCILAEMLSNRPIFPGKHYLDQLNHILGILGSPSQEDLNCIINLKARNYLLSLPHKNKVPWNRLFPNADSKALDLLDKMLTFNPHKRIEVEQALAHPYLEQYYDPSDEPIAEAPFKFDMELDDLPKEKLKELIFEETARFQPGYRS

IC50 [nM]	Structure (SMILES)
4	CCn1cc(-c2cnc3ccc(NC(=O)NCCCCc4ccccc4)nc3n2)cn1 [Compound 108, 1-[3-(1-Ethyl-1H-pyrazol-4-yl)-pyrido[2,3-b]pyrazin-6-yl]-3-(4-phenyl-butyl)-urea]
5	O=C(NCCCCc1ccccc1)Nc1ccc2ncc(-c3cnn(CCN4CCOCC4)c3)nc2n1 [Compound 127, 1-{3-[1-(2-Morpholin-4-yl-ethyl)-1H-pyrazol-4-yl]-pyrido[2,3-b]pyrazin-6-yl}-3-(4-phenyl-butyl)-urea]
1	COc1cc(CO)ccc1-c1cnc2ccc(NC(=O)N[C@H](C)CCCc3ccccc3)nc2n1 [Compound 156, 1-[3-(4-Hydroxymethyl-2-methoxy-phenyl)-pyrido[2,3-b]pyrazin-6-yl]-3-((R)-1-methyl-4-phenyl-butyl)-urea]
2	C[C@H](CCCc1ccccc1)NC(=O)Nc1ccc2ncc(-c3ccncc3)nc2n1 [Compound 157, 1-((R)-1-Methyl-4-phenyl-butyl)-3-(3-pyridin-4-yl-pyrido[2,3-b]pyrazin-6-yl)-urea]
2	O=C(NCCCCc1ccccc1)Nc1ccc2ncc(-c3cnn(CCCO)c3)nc2n1 [Compound 162, 1-{3-[1-(3-Hydroxy-propyl)-1H-pyrazol-4-yl]-pyrido[2,3-b]pyrazin-6-yl}-3-(4-phenyl-butyl)-urea]
6	O=C(NCCCCc1ccccc1)Nc1ccc2ncc(-c3ccc(O)c(F)c3)nc2n1 [Compound 174, 1-[3-(3-Fluoro-4-hydroxy-phenyl)-pyrido[2,3-b]-pyrazin-6-yl]-3-(4-phenyl-butyl)-urea]
6	O=C(NCCCCc1ccccc1)Nc1ccc2ncc(-c3cccc(CO)c3)nc2n1 [Compound 175, 1-[3-(3-Hydroxymethyl-phenyl)-pyrido[2,3-b]pyrazin-6-yl]-3-(4-phenyl-butyl)-urea]
6	C[C@H](CCCc1ccccc1)NC(=O)Nc1ccc2ncc(-c3cnn(C)c3)nc2n1 [Compound 180, 1-((R)-1-Methyl-4-phenyl-butyl)-3-[3-(1-methyl-1H-pyrazol-4-yl)-pyrido[2,3-b]pyrazin-6-yl]urea]
6	C[C@H](CCCc1ccccc1)NC(=O)Nc1ccc2ncc(-c3cccc(CO)c3)nc2n1 [Compound 181, 1-[3-(3-Hydroxymethyl-phenyl)-pyrido[2,3-b]pyrazin-6-yl]-3-((R)-1-methyl-4-phenyl-butyl)-urea]
4	O=C(NCCCCc1ccccc1)Nc1ccc2ncc(-c3cnn(CCO)c3)nc2n1 [Compound 189, 1-{3-[1-(2-Hydroxy-ethyl)-1H-pyrazol-4-yl]-pyrido[2,3-b]pyrazin-6-yl}-3-(4-phenyl-butyl)-urea]
1	COc1cc(-c2cnc3ccc(NC(=O)NCCCCc4ccccc4)nc3n2)ccc1C(=O)O [Compound 194, 2-Methoxy-4-{6-[3-(4-phenyl-butyl)-ureido]-pyrido[2,3-b]pyrazin-3-yl}-benzoic acid]
41	O=C(NCCCCc1ccccc1)Nc1ccc2ncc(-c3ccc(OCCN4CCOCC4)cc3)nc2n1 [Compound 202, 1-{3-[4-(2-Morpholin-4-yl-ethoxy)-phenyl]-pyrido[2,3-b]pyrazin-6-yl}-3-(4-phenyl-butyl)-urea]
24	COCc1cccc(-c2cnc3ccc(NC(=O)N[C@H](C)CCCc4ccccc4)nc3n2)c1 [Compound 203, 1-[3-(3-Methoxymethyl-phenyl)-pyrido[2,3-b]pyrazin-6-yl]-3-((R)-1-methyl-4-phenyl-butyl)-urea]

Structure (SMILES)	IC50 [nM]
C[C@H](CCCc1ccccc1)NC(=O)Nc1ccc2ncc(-c3ccc(C[C@H](N)C(=O)O)cc3)nc2n1 [Compound 195, (S)-2-Amino-3-(4-{6-[3-((R)-1-methyl-4-phenyl-butyl)-ureido]-pyrido[2,3-b]pyrazin-3-yl}-phenyl)-propionic acid; hydrochloride]	1

system: not given; assay: not given; conditions: not given

melting point [°C]	Structure (SMILES)
207 to 208	CCn1cc(-c2cnc3ccc(NC(=O)NCCCCc4ccccc4)nc3n2)cn1 [Compound 108, 1-[3-(1-Ethyl-1H-pyrazol-4-yl)-pyrido[2,3-b]pyrazin-6-yl]-3-(4-phenyl-butyl)-urea]
247 to 248	O=C(NCCCCc1ccccc1)Nc1ccc2ncc(-c3ccccc3O)nc2n1 [Compound 133, 1-[3-(2-Hydroxy-phenyl)-pyrido[2,3-b]pyrazin-6-yl]-3-(4-phenyl-butyl)-urea]
225	CC(C)(C)C(=O)Oc1ccc(-c2cnc3ccc(NC(=O)NCCCCc4ccccc4)nc3n2)cc1 [Compound 135, 2,2-Dimethyl-propionic acid 4-{6-[3-(4-phenyl-butyl)-ureido]-pyrido[2,3-b]pyrazin-3-yl}-phenyl ester]
227 to 230	CSc1ccc(-c2cnc3ccc(NC(=O)NCCCCc4ccccc4)nc3n2)cc1 [Compound 137, 1-[3-(4-Methylsulfanyl-phenyl)-pyrido[2,3-b]pyrazin-6-yl]-3-(4-phenyl-butyl)-urea]
237 to 240	N#Cc1cccc(-c2cnc3ccc(NC(=O)NCCCCc4ccccc4)nc3n2)c1 [Compound 138, 1-[3-(3-Cyano-phenyl)-pyrido[2,3-b]pyrazin-6-yl]-3-(4-phenyl-butyl)-urea]
223 to 225	COc1cc(Nc2cnc3ccc(NC(=O)NCCCCc4ccccc4)nc3n2)cc(OC)c1OC [Compound 139, 1-(4-Phenyl-butyl)-3-[3-(3,4,5-trimethoxy-phenylamino)-pyrido[2,3-b]pyrazin-6-yl]-urea]
136 to 139	COc1cc(Nc2cnc3ccc(NC(=O)NCCCCc4ccccc4)nc3n2)cc(O)c1OC [Compound 141, 1-[3-(3-Hydroxy-4,5-dimethoxy-phenylamino)-pyrido[2,3-b]pyrazin-6-yl]-3-(4-phenyl-butyl)-urea]
248 to 249	O=C(NCCCCc1ccccc1)Nc1ccc2ncc(-c3ccc(F)cc3O)nc2n1 [Compound 144, 1-[3-(4-Fluoro-2-hydroxy-phenyl)-pyrido[2,3-b]pyrazin-6-yl]-3-(4-phenyl-butyl)-urea]
256 to 258	COc1ccc(-c2cnc3ccc(NC(=O)NCCCCc4ccccc4)nc3n2)cc1S(=O)(=O)N1CCOCC1 [Compound 145, 1-{3-[4-Methoxy-3-(morpholine-4-sulfonyl)-phenyl]-pyrido[2,3-b]pyrazin-6-yl}-3-(4-phenyl-butyl)-urea]
194 to 197	COc1ncccc1-c1cnc2ccc(NC(=O)NCCCCc3ccccc3)nc2n1 [Compound 146, 1-[3-(2-Methoxy-pyridin-3-yl)-pyrido[2,3-b]pyrazin-6-yl]-3-(4-phenyl-butyl)-urea]
226 to 229	C[C@H](CCCc1ccccc1)NC(=O)Nc1ccc2ncc(-c3ccc(O)cc3)nc2n1 [Compound 147, 1-[3-(4-Hydroxy-phenyl)-pyrido[2,3-b]pyrazin-6-yl]-3-((R)-1-methyl-4-phenyl-butyl)-urea]
196 to 198	COc1ccc(-c2cnc3ccc(NC(=O)N[C@H](C)CCCc4ccccc4)nc3n2)cc1O [Compound 148, 1-[3-(3-Hydroxy-4-methoxy-phenyl)-pyrido[2,3-b]pyrazin-6-yl]-3-((R)-1-methyl-4-phenyl-butyl)-urea]
218 to 220	C[C@H](CCCc1ccccc1)NC(=O)Nc1ccc2ncc(-c3ccoc3)nc2n1 [Compound 149, 1-(3-Furan-3-yl-pyrido[2,3-b]pyrazin-6-yl)-3-((R)-1-methyl-4-phenyl-butyl)-urea]
218 to 220	C[C@H](CCCc1ccccc1)NC(=O)Nc1ccc2ncc(-c3cccnc3)nc2n1 [Compound 150, 1-((R)-1-Methyl-4-phenyl-butyl)-3-(3-pyridin-3-yl-pyrido[2,3-b]pyrazin-6-yl)-urea]
230 to 232	COc1ccc(-c2cnc3ccc(NC(=O)NCCCCc4ccccc4)nc3n2)cc1O [Compound 151, 1-[3-(3-Hydroxy-4-methoxy-phenyl)-pyrido[2,3-b]pyrazin-6-yl]-3-(4-phenyl-butyl)-urea]
212 to 216	O=C(NCCCCc1ccccc1)Nc1ccc2ncc(-c3ccoc3)nc2n1 [Compound 152, 1-(3-Furan-3-yl-pyrido[2,3-b]pyrazin-6-yl)-3-(4-phenyl-butyl)-urea]
172 to 175	C[C@H](CCCc1ccccc1)NC(=O)Nc1ccc2ncc(N3CCN(C)CC3)nc2n1 [Compound 153, 1-((R)-1-Methyl-4-phenyl-butyl)-3-[3-(4-methyl-piperazin-1-yl)-pyrido[2,3-b]pyrazin-6-yl]-urea]
171 to 174	C[C@H](CCCc1ccccc1)NC(=O)Nc1ccc2ncc(N3CCCCC3)nc2n1 [Compound 154, 1-((R)-1-Methyl-4-phenyl-butyl)-3-(3-piperidin-1-yl-pyrido[2,3-b]pyrazin-6-yl)-urea]
168 to 170	COc1cc(CO)ccc1-c1cnc2ccc(NC(=O)N[C@H](C)CCCc3ccccc3)nc2n1 [Compound 156, 1-[3-(4-Hydroxymethyl-2-methoxy-phenyl)-pyrido[2,3-b]pyrazin-6-yl]-3-((R)-1-methyl-4-phenyl-butyl)-urea]
223 to 226	C[C@H](CCCc1ccccc1)NC(=O)Nc1ccc2ncc(-c3ccncc3)nc2n1 [Compound 157, 1-((R)-1-Methyl-4-phenyl-butyl)-3-(3-pyridin-4-yl-pyrido[2,3-b]pyrazin-6-yl)-urea]
213 to 215	O=C(NCCCCc1ccccc1)Nc1ccc2ncc(-c3ccc(CO)cc3)nc2n1 [Compound 182, 1-[3-(4-Hydroxymethyl-phenyl)-pyrido[2,3-b]pyrazin-6-yl]-3-(4-phenyl-butyl)-urea]
219 to 222	O=C(NCCCCc1ccccc1)Nc1ccc2ncc(-c3ccncc3)nc2n1 [Compound 184, 1-(4-Phenyl-butyl)-3-(3-pyridin-4-yl-pyrido[2,3-b]pyrazin-6-yl)-urea]
220 to 222	C[C@H](CCCc1ccccc1)NC(=O)Nc1ccc2ncc(-c3ccc(O)c(F)c3)nc2n1 [Compound 185, 1-[3-(3-Fluoro-4-hydroxy-phenyl)-pyrido[2,3-b]pyrazin-6-yl]-3-((R)-1-methyl-4-phenyl-butyl)-urea]
241 to 243	O=C(NCCCCc1ccccc1)Nc1ccc2ncc(-c3ccc(O)c(Cl)c3)nc2n1 [Compound 186, 1-[3-(3-Chloro-4-hydroxy-phenyl)-pyrido[2,3-b]pyrazin-6-yl]-3-(4-phenyl-butyl)-urea]
